Source: ChEMBL document CHEMBL5042492, “Noncovalent CDK12/13 dual inhibitors-based PROTACs degrade CDK12-Cyclin K complex and induce synthetic lethality with PARP inhibitor” (Eur J Med Chem, 2022)
Active and inactive are the calls of the source. No cut-off for these calls is given here.

Columns and labels:
MDA-MB-231 [1] = assay: Synergistic antiproliferative activity against human MDA-MB-231 cells in presence of 3 uM of Olaparib at 1 uM measured after 10 days by Chou-Talalay method; format: functional; conditions: time 10 day
[2] = biological target: T1, Protein cereblon/Cyclin-K/Cyclin-dependent kinase 12 (Homo sapiens, UniProt O75909+Q9NYV4+Q96SW2); assay: Protac activity at human CRBN/CDK12/CycK in human Bel-7402 cells assessed as degradation of Cyclin T1 upto 30 uM measured after 24 hrs by Western blotting assay; format: cell-based; conditions: dose microM <=30, time 24.0 hrs
Target sequence in this assay (O75909 whole entry, looked up): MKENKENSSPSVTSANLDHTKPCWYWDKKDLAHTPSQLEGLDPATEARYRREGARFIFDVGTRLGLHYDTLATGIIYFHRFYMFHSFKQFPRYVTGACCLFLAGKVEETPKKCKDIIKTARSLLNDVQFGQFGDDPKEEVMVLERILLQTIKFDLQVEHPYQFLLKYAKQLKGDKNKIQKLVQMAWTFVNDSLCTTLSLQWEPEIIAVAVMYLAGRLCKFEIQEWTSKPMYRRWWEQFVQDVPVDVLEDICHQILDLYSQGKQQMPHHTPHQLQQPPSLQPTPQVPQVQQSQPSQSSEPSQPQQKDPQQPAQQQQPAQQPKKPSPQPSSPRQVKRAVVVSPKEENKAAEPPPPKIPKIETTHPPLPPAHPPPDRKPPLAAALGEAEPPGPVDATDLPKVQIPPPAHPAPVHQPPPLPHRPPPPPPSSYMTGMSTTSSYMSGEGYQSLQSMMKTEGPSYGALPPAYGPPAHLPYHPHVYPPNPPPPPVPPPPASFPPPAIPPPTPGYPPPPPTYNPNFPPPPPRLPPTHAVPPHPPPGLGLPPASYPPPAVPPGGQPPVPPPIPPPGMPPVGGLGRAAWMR
Target sequence in this assay (Q96SW2 whole entry, looked up): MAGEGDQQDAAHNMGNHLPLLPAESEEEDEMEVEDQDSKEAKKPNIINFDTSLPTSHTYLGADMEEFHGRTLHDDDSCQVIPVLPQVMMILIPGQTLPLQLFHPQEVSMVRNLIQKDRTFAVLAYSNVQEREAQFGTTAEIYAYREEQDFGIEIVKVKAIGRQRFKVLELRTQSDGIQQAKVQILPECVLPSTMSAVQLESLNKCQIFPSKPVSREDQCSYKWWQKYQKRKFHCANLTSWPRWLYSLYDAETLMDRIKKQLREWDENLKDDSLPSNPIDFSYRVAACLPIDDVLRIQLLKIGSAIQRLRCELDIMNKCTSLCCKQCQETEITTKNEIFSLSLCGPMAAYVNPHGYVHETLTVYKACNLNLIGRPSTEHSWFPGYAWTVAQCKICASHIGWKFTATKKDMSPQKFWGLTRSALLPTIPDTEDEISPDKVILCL
Target sequence in this assay (Q9NYV4 whole entry, looked up): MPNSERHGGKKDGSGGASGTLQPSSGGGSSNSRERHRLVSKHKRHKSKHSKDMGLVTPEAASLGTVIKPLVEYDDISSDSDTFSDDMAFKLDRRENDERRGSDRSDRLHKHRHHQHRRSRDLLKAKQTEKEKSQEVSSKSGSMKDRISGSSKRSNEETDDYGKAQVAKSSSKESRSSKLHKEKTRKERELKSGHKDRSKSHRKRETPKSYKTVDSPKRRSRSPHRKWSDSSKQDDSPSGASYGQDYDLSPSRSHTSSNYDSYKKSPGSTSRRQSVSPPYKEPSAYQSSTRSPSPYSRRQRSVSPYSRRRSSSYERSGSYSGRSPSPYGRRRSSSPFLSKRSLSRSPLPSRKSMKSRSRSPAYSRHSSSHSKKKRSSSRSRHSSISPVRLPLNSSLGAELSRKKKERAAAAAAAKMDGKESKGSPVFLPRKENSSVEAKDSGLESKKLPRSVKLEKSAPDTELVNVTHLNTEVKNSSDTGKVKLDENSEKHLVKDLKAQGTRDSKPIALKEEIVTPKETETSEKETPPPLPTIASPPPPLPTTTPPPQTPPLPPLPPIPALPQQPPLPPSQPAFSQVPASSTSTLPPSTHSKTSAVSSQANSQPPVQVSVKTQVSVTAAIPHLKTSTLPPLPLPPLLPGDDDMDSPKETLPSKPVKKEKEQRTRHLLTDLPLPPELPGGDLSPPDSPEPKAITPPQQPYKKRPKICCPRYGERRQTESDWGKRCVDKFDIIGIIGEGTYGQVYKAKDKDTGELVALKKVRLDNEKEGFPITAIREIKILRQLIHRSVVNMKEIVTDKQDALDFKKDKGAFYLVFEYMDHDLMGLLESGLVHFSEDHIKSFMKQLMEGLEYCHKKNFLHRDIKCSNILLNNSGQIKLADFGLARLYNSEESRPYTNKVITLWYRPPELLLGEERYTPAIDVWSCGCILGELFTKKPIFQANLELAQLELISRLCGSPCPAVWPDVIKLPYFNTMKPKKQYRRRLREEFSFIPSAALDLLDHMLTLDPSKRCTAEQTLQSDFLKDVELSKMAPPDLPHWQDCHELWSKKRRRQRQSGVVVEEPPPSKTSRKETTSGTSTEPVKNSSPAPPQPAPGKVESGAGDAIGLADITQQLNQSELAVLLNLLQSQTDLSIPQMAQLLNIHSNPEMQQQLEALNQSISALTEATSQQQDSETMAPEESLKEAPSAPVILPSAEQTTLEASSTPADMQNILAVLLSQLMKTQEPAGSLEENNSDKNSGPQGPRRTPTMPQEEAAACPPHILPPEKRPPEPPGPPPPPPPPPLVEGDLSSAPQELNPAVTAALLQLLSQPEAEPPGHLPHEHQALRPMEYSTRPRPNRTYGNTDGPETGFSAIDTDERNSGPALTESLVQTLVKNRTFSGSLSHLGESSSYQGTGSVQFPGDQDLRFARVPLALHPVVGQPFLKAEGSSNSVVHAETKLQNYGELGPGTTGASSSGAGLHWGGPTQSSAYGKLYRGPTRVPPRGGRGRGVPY

[3] = biological target: T1, Protein cereblon/Cyclin-K/Cyclin-dependent kinase 12; assay: Protac activity at human CRBN/CDK12/CycK in human Bel-7402 (CRBN/KO) cells assessed as degradation of CDK12 measured after 24 hrs by Western blotting assay; format: cell-based
Target sequence in this assay (O75909 whole entry, looked up): as the sequence (O75909 whole entry, looked up) above
Target sequence in this assay (Q96SW2 whole entry, looked up): as the sequence (Q96SW2 whole entry, looked up) above
Target sequence in this assay (Q9NYV4 whole entry, looked up): as the sequence (Q9NYV4 whole entry, looked up) above

[4] = biological target: T1, Protein cereblon/Cyclin-K/Cyclin-dependent kinase 12; assay: Protac activity at human CRBN/CDK12/CycK in human Bel-7402 cells assessed as CycK mRNA expression measured after 6 hrs by RT-qPCR method; format: cell-based
Target sequence in this assay (O75909 whole entry, looked up): as the sequence (O75909 whole entry, looked up) above
Target sequence in this assay (Q96SW2 whole entry, looked up): as the sequence (Q96SW2 whole entry, looked up) above
Target sequence in this assay (Q9NYV4 whole entry, looked up): as the sequence (Q9NYV4 whole entry, looked up) above

[5] = biological target: T1, Protein cereblon/Cyclin-K/Cyclin-dependent kinase 12; assay: Protac activity at human CRBN/CDK12/CycK in human Bel-7402 cells assessed as downregulation of Mcl-1 level upto 30 uM measured after 24 hrs by Western blotting assay; format: cell-based; conditions: dose microM <=30, time 24.0 hrs
Target sequence in this assay (O75909 whole entry, looked up): as the sequence (O75909 whole entry, looked up) above
Target sequence in this assay (Q96SW2 whole entry, looked up): as the sequence (Q96SW2 whole entry, looked up) above
Target sequence in this assay (Q9NYV4 whole entry, looked up): as the sequence (Q9NYV4 whole entry, looked up) above

MDA-MB-231 [6] = assay: Synergistic antiproliferative activity against human MDA-MB-231 cells in presence of 3 uM of Olaparib at 3 uM measured after 10 days by Chou-Talalay method; format: functional; conditions: time 10 day
[7] = biological target: T1, Protein cereblon/Cyclin-K/Cyclin-dependent kinase 12; assay: Protac activity at human CRBN/CDK12/CycK in human Bel-7402 cells assessed as degradation of CDK9 upto 30 uM measured after 24 hrs by Western blotting assay; format: cell-based; conditions: dose microM <=30, time 24.0 hrs
Target sequence in this assay (O75909 whole entry, looked up): as the sequence (O75909 whole entry, looked up) above
Target sequence in this assay (Q96SW2 whole entry, looked up): as the sequence (Q96SW2 whole entry, looked up) above
Target sequence in this assay (Q9NYV4 whole entry, looked up): as the sequence (Q9NYV4 whole entry, looked up) above

[8] = biological target: T1, Protein cereblon/Cyclin-K/Cyclin-dependent kinase 12; assay: Protac activity at human CRBN/CDK12/CycK in human MDA-MB-231 cells assessed as degradation of CDK12 measured after 24 hrs by Western blotting assay; format: cell-based
Target sequence in this assay (O75909 whole entry): as the sequence (O75909 whole entry, looked up) above
Target sequence in this assay (Q9NYV4 whole entry): as the sequence (Q9NYV4 whole entry, looked up) above
Target sequence in this assay (Q96SW2 whole entry): as the sequence (Q96SW2 whole entry, looked up) above

[9] = biological target: T1, Protein cereblon/Cyclin-K/Cyclin-dependent kinase 12; assay: Protac activity at human CRBN/CDK12/CycK in human MDA-MB-231 cells assessed as degradation of CDK12 at 3 uM measured after 24 hrs by Western blotting assay; format: cell-based
Target sequence in this assay (O75909 whole entry, looked up): as the sequence (O75909 whole entry, looked up) above
Target sequence in this assay (Q96SW2 whole entry, looked up): as the sequence (Q96SW2 whole entry, looked up) above
Target sequence in this assay (Q9NYV4 whole entry, looked up): as the sequence (Q9NYV4 whole entry, looked up) above

[10] = biological target: T1, Protein cereblon/Cyclin-K/Cyclin-dependent kinase 12; assay: Protac activity at human CRBN/CDK12/CycK in human Bel-7402 cells assessed as degradation of CDK12 at 1 to 3 uM for 24 hrs in presence of MG132 by Western blotting assay; format: cell-based; conditions: dose 1-3 µM
[11] = biological target: T1, Protein cereblon/Cyclin-K/Cyclin-dependent kinase 12; assay: Protac activity at human CRBN/CDK12/CycK in human MDA-MB-231 cells assessed as degradation of CDK9 up to 30 uM measured after 24 hrs by Western blotting assay; format: cell-based; conditions: dose microM <=30, time 24.0 hrs
[12] = biological target: T1, Protein cereblon/Cyclin-K/Cyclin-dependent kinase 12; assay: Protac activity at human CRBN/CDK12/CycK in human MDA-MB-231 cells assessed as degradation of CycK a 1 to 3 uM for 24 hrs in presence of MG132 by Western blotting assay; format: cell-based; conditions: dose 1-3 µM
[13] = biological target: T1, Protein cereblon/Cyclin-K/Cyclin-dependent kinase 12; assay: Protac activity at human CRBN/CDK12/CycK in human Bel-7402 cells assessed as degradation of CDK12 measured after 24 hrs by Western blotting assay; format: cell-based
Target sequence in this assay (O75909 whole entry): as the sequence (O75909 whole entry, looked up) above
Target sequence in this assay (Q9NYV4 whole entry): as the sequence (Q9NYV4 whole entry, looked up) above
Target sequence in this assay (Q96SW2 whole entry): as the sequence (Q96SW2 whole entry, looked up) above

[14] = biological target: Protein cereblon/Cyclin-dependent kinase 13 (Homo sapiens) (UniProt Q14004+Q96SW2); assay: Protac activity at human CRBN/CDK13 in human Bel-7402 cells assessed as degradation of CDK13 at 0.1 to 30 uM measured after 24 hrs by Western blotting assay; format: cell-based; conditions: dose 0.1-30 µM
[15] = biological target: T1, Protein cereblon/Cyclin-K/Cyclin-dependent kinase 12; assay: Protac activity at human CRBN/CDK12/CycK in human Bel-7402 cells assessed as CDK12 mRNA expression measured after 6 hrs by RT-qPCR method; format: cell-based
[16] = biological target: T1, Protein cereblon/Cyclin-K/Cyclin-dependent kinase 12; assay: Protac activity at human CRBN/CDK12/CycK in human MDA-MB-231 cells assessed as degradation of CycK measured after 24 hrs by Western blotting assay; format: cell-based
Target sequence in this assay (O75909 whole entry): as the sequence (O75909 whole entry, looked up) above
Target sequence in this assay (Q9NYV4 whole entry): as the sequence (Q9NYV4 whole entry, looked up) above
Target sequence in this assay (Q96SW2 whole entry): as the sequence (Q96SW2 whole entry, looked up) above

MDA-MB-231 [17] = assay: Synergistic antiproliferative activity against human MDA-MB-231 cells in presence of 3 uM of Olaparib at 1 uM measured after 10 days by SRB staining based clone formation assay relative to control; format: functional; conditions: MDA-MB-231, 240 h, time 10 day
[18] = biological target: T1, Protein cereblon/Cyclin-K/Cyclin-dependent kinase 12; assay: Protac activity at human CRBN/CDK12/CycK in human MDA-MB-231 cells assessed as CycK mRNA expression measured after 6 hrs by RT-qPCR method; format: cell-based
MDA-MB-231 [19] = assay: Synergistic antiproliferative activity against human MDA-MB-231 cells in presence of 1 uM of Olaparib at 1 uM for 10 days by Chou-Talalay method; format: functional; conditions: time 10 day
[20] = biological target: T1, Protein cereblon/Cyclin-K/Cyclin-dependent kinase 12; assay: Protac activity at human CRBN/CDK12/CycK in human Bel-7402 cells assessed as downregulation of ATR measured after 6 hrs by RT-qPCR method; format: cell-based
[21] = biological target: T1, Protein cereblon/Cyclin-K/Cyclin-dependent kinase 12; assay: Protac activity at human CRBN/CDK12/CycK in human Bel-7402 cells assessed as degradation of CycK measured after 24 hrs by Western blotting assay; format: cell-based
Target sequence in this assay (O75909 whole entry): as the sequence (O75909 whole entry, looked up) above
Target sequence in this assay (Q9NYV4 whole entry): as the sequence (Q9NYV4 whole entry, looked up) above
Target sequence in this assay (Q96SW2 whole entry): as the sequence (Q96SW2 whole entry, looked up) above

[22] = biological target: T1, Protein cereblon/Cyclin-K/Cyclin-dependent kinase 12; assay: Protac activity at human CRBN/CDK12/CycK in human MDA-MB-231 cells assessed as downregulation of ATM measured after 6 hrs by RT-qPCR method; format: cell-based
[23] = biological target: T1, Protein cereblon/Cyclin-K/Cyclin-dependent kinase 12; assay: Protac activity at human CRBN/CDK12/CycK in human MDA-MB-231 cells assessed as CDK12 mRNA expression measured after 6 hrs by RT-qPCR method; format: cell-based
[24] = biological target: T1, Protein cereblon/Cyclin-K/Cyclin-dependent kinase 12; assay: Protac activity at human CRBN/CDK12/CycK in human MDA-MB-231 cells assessed as degradation of CDK7 up to 30 uM measured after 24 hrs by Western blotting assay; format: cell-based; conditions: dose microM <=30, time 24.0 hrs

Activity [2]: inactive | Activity [3]: inactive | Activity [4]: inactive | Activity [5]: inactive | Activity [7]: inactive | DC50 [8]: 416 nM | Activity [9]: Active | Activity [10]: inactive | Activity [11]: inactive | Activity [12]: inactive | DC50 [13]: 416 nM | Activity [14]: Active | Activity [15]: inactive | DC50 [16]: 412 nM | Activity [18]: inactive | Activity [20]: Active | DC50 [21]: 412 nM | Activity [22]: Active | Activity [23]: inactive | Activity [24]: inactive
Compound: CC(C)n1cnc2c(NCc3nc4cc(F)c(NCCCCCCCCNC(=O)COc5cccc6c5C(=O)N(C5CCC(=O)NC5=O)C6=O)cc4[nH]3)nc(N3CCOCC3)nc21 (centres undefined)
CI (MDA-MB-231 [1]): 0.75 | CI (MDA-MB-231 [6]): 0.62 | inhibition at 1 µM (MDA-MB-231 [17]): 99.6% | CI (MDA-MB-231 [19]): 0.65
